{"source": "ChEMBL document CHEMBL5053549", "about": "“Discovery of Potent and Novel Dual PARP/BRD4 Inhibitors for Efficient Treatment of Pancreatic Cancer” (J Med Chem, 2021)", "key": {"Mus musculus [1]": {"tested_on": "Mus musculus", "test": "Inhibition of homologous recombinant repair in human SW1990 cells xenografted in BALB/c mouse assessed as reduction in olaparib-induced Rad51 expression at 15 mg/kg, ip after 4 days by immunohistochemical analysis", "type": "functional, organism-based", "details": "time 4.0 day"}, "[2]": {"molecular_target": "T1, Bromodomain-containing protein 4 (Homo sapiens, UniProt O60885)", "test": "Inhibition of recombinant BRD4 BD2 (unknown origin) incubated for 120 mins by TR-FRET assay"}, "[3]": {"molecular_target": "Bromodomain testis-specific protein (Homo sapiens, UniProt Q58F21)", "test": "Inhibition of recombinant BRDT BD1 (unknown origin) incubated for 120 mins by TR-FRET assay"}, "Mus musculus [4]": {"tested_on": "Mus musculus", "test": "Inhibition of homologous recombinant repair in human SW1990 cells xenografted in BALB/c mouse assessed as reduction in olaparib-induced BRCA1 expression at 15 mg/kg, ip after 4 days by immunohistochemical analysis", "type": "functional, organism-based", "details": "time 4.0 day"}, "Mus musculus [5]": {"tested_on": "Mus musculus", "test": "Inhibition of homologous recombinant repair in human SW1990 cells xenografted in BALB/c mouse assessed as reduction in olaparib-induced FOXM1 expression at 15 mg/kg, ip after 4 days by immunohistochemical analysis", "type": "functional, organism-based", "details": "time 4.0 day"}, "[6]": {"molecular_target": "T1, Bromodomain-containing protein 4", "test": "Inhibition of BRD4 expression in human SW1990 cells at 1 uM after 4 days by Western blot analysis", "type": "cell-based", "details": "time 4.0 day"}, "Mus musculus [7]": {"tested_on": "Mus musculus", "test": "Toxicity in BALB/c mouse xenografted with human SW1990 cells assessed as kidney damage at 45 mg/kg, ip administered for 28 consecutive days by H and E staining based […] microscopic analysis", "type": "organism-based", "details": "in vivo, 672 h, time 28 day"}, "Mus musculus [8]": {"tested_on": "Mus musculus", "test": "Toxicity in BALB/c mouse xenografted with human SW1990 cells assessed as spleen damage at 45 mg/kg, ip administered for 28 consecutive days by H and E staining based […] microscopic analysis", "type": "organism-based", "details": "in vivo, 672 h, time 28 day"}, "SW1990 [9]": {"tested_on": "SW1990", "test": "Induction of apoptosis in human SW1990 cells assessed as early apoptotic cells at 1 uM after 4 days by Annexin V-FITC and propidium iodide staining based flow cytometry (reference value: […]%)", "type": "functional", "details": "time 4 day"}, "SW1990 [10]": {"tested_on": "SW1990", "test": "Induction of apoptosis in human SW1990 cells assessed as necrotic cells at 1 uM after 4 days by Annexin V-FITC and propidium iodide staining based flow cytometry (reference value: 1.89%)", "type": "functional", "details": "time 4 day"}, "SW1990 [11]": {"tested_on": "SW1990", "test": "Induction of cell cycle arrest in human SW1990 cells assessed as accumulation of cells at S phase at 1 uM incubated for 4 days by propidium iodide staining based flow cytometry (reference value: 29.32%)", "type": "functional", "details": "time 4 day"}, "Mus musculus [12]": {"tested_on": "Mus musculus", "test": "Effect on cell cycle progression in human SW1990 cells xenografted in BALB/c mouse assessed as reduction in PLK1 expression at 45 mg/kg, ip after 4 days by Western blot analysis", "type": "functional, organism-based", "details": "time 4.0 day"}, "SW1990 [13]": {"tested_on": "SW1990", "test": "Effect on cell cycle progression in human SW1990 cells assessed as reduction in PLK1 expression at 1 to 2 uM after 4 days by Western blot analysis", "type": "functional, cell-based", "details": "dose 1-2 µM, time 4.0 day"}, "SW1990 [14]": {"tested_on": "SW1990", "test": "Effect on cell cycle progression in human SW1990 cells assessed as reduction in PLK1 expression at 1 to 2 uM after 4 days by Q-PCR analysis", "type": "functional, cell-based", "details": "dose 1-2 µM, time 4.0 day"}, "Mus musculus [15]": {"tested_on": "Mus musculus", "test": "Effect on cell cycle progression in human SW1990 cells xenografted in BALB/c mouse assessed as reduction in E2F2 expression at 45 mg/kg, ip after 4 days by Q-PCR analysis", "type": "functional, organism-based", "details": "time 4.0 day"}, "SW1990 [16]": {"tested_on": "SW1990", "test": "Inhibition of homologous recombinant repair in human SW1990 cells assessed as reduction in BRCA1 expression at 1 to 2 uM after 4 days by Q-PCR analysis", "type": "functional, cell-based", "details": "dose 1-2 µM, time 4.0 day"}, "SW1990 [17]": {"tested_on": "SW1990", "test": "Inhibition of homologous recombinant repair in human SW1990 cells assessed as reduction in c-Myc expression at 1 to 2 uM after 4 days by Q-PCR analysis", "type": "functional, cell-based", "details": "dose 1-2 µM, time 4.0 day"}, "SW1990 [18]": {"tested_on": "SW1990", "test": "Induction of autophagy in human SW1990 cells assessed as reduction in p62 expression at 1 to 2 uM incubated for 4 days by immunofluorescence assay", "type": "functional, cell-based", "details": "dose 1-2 µM, time 4.0 day"}, "SW1990 [19]": {"tested_on": "SW1990", "test": "Induction of autophagy in human SW1990 cells xenografted in BALB/c mouse assessed as increase in ATG5 expression at 45 mg/kg, ip after 4 days by Q-PCR analysis", "type": "functional, organism-based", "details": "time 4.0 day"}, "SW1990 [20]": {"tested_on": "SW1990", "test": "Induction of autophagy in human SW1990 cells xenografted in BALB/c mouse assessed as decrease in p62 expression at 45 mg/kg, ip after 4 days by Q-PCR analysis", "type": "functional, organism-based", "details": "time 4.0 day"}, "SW1990 [21]": {"tested_on": "SW1990", "test": "Induction of autophagy in human SW1990 cells xenografted in BALB/c mouse assessed as increase in beclin1 expression at 45 mg/kg, ip after 4 days by Western blot analysis", "type": "functional, organism-based", "details": "time 4.0 day"}, "SW1990 [22]": {"tested_on": "SW1990", "test": "Induction of autophagy in human SW1990 cells xenografted in BALB/c mouse assessed as decrease in p62 expression at 45 mg/kg, ip after 4 days by Western blot analysis", "type": "functional, organism-based", "details": "time 4.0 day"}, "Mus musculus [23]": {"tested_on": "Mus musculus", "test": "Toxicity in BALB/c mouse xenografted with human SW1990 cells assessed as spleen damage at 15 mg/kg, ip administered for 28 consecutive days by H and E staining based […] microscopic analysis", "type": "organism-based", "details": "in vivo, 672 h, time 28 day"}, "Mus musculus [24]": {"tested_on": "Mus musculus", "test": "In vivo inhibition of PARP1 expression in human […] cells xenografted in BALB/c mouse assessed as reversal of Olaparib-induced PARP1 accumulation at 15 mg/kg, ip administered for 28 consecutive days in presence of 45 mg/kg Olaparib by Q-PCR analysis", "type": "functional, organism-based", "details": "time 28.0 day"}, "SW1990 [25]": {"tested_on": "SW1990", "test": "Induction of apoptosis in human SW1990 cells assessed as late apoptotic cells at 4 uM after 4 days by Annexin V-FITC and propidium iodide staining based flow cytometry (reference value: 6.22%)", "type": "functional", "details": "time 4 day"}, "SW1990 [26]": {"tested_on": "SW1990", "test": "Induction of apoptosis in human SW1990 cells assessed as necrotic cells at 4 uM after 4 days by Annexin V-FITC and propidium iodide staining based flow cytometry (reference value: 1.89%)", "type": "functional", "details": "time 4 day"}, "SW1990 [27]": {"tested_on": "SW1990", "test": "Induction of apoptosis in human SW1990 cells assessed as late apoptotic cells at 1 uM after 4 days in presence of 3 uM Olaparib by Annexin V-FITC and propidium iodide staining based flow cytometry (reference value: 6.22%)", "type": "functional", "details": "time 4 day"}, "SW1990 [28]": {"tested_on": "SW1990", "test": "Induction of cell cycle arrest in human SW1990 cells assessed as accumulation of cells at G2/M phase at 1 uM incubated for 4 days in presence of 3 uM Olaparib by propidium iodide staining based flow cytometry (reference value: 5.89%)", "type": "functional", "details": "time 4 day"}, "SW1990 [29]": {"tested_on": "SW1990", "test": "Effect on cell cycle progression in human SW1990 cells assessed as reduction in Olaparib-induced PLK1 expression at 1 uM after 4 days in presence of Olaparib by Western blot analysis", "type": "functional, cell-based", "details": "time 4.0 day"}, "SW1990 [30]": {"tested_on": "SW1990", "test": "Inhibition of homologous recombinant repair in human SW1990 cells assessed as reduction in Olaparib-induced FOXM1 expression at 1 uM after 4 days in presence of Olaparib by Western blot analysis", "type": "functional, cell-based", "details": "time 4.0 day"}, "SW1990 [31]": {"tested_on": "SW1990", "test": "Inhibition of homologous recombinant repair in human SW1990 cells assessed as reduction in Olaparib-induced BRCA1 expression at 1 uM after 4 days in presence of Olaparib by Western blot analysis", "type": "functional, cell-based", "details": "time 4.0 day"}, "SW1990 [32]": {"tested_on": "SW1990", "test": "Inhibition of homologous recombinant repair in human SW1990 cells assessed as reduction in Olaparib-induced Rad51 expression at 1 uM after 4 days in presence of Olaparib by Western blot analysis", "type": "functional, cell-based", "details": "time 4.0 day"}, "SW1990 [33]": {"tested_on": "SW1990", "test": "Inhibition of homologous recombinant repair in human SW1990 cells assessed as reduction in Rad51 expression at 4 uM after 4 days by Q-PCR analysis", "type": "functional, cell-based", "details": "time 4.0 day"}}, "note": "Activity calls are given as the source filed them. The calls are words filed in the database; no cut-off is given here."}
{"smiles": "CC[C@@H]1C(=O)N(C)c2cnc(N(C)c3ccc(-c4nc5c(C(N)=O)cccc5[nH]4)cc3OC)nc2N1C1CCCC1", "values": [{"measurement": "inhibition", "setting": "Mus musculus [1]", "result": "Active"}, {"measurement": "IC50", "setting": "[2]", "result": 157, "unit": "nM"}, {"measurement": "IC50", "setting": "[3]", "result": 1200, "unit": "nM"}, {"measurement": "inhibition", "setting": "Mus musculus [4]", "result": "Active"}, {"measurement": "inhibition", "setting": "Mus musculus [5]", "result": "Active"}, {"measurement": "inhibition", "setting": "[6]", "result": "Active"}, {"measurement": "Activity", "setting": "Mus musculus [7]", "result": "Non-Toxic"}, {"measurement": "Activity", "setting": "Mus musculus [8]", "result": "Non-Toxic"}, {"measurement": "Activity", "setting": "SW1990 [9]", "result": 1.71, "unit": "%"}, {"measurement": "Activity", "setting": "SW1990 [10]", "result": 3.41, "unit": "%"}, {"measurement": "Activity", "setting": "SW1990 [11]", "result": 14.74, "unit": "%"}, {"measurement": "Activity", "setting": "Mus musculus [12]", "result": "Active"}, {"measurement": "Activity", "setting": "SW1990 [13]", "result": "Active"}, {"measurement": "Activity", "setting": "SW1990 [14]", "result": "Active"}, {"measurement": "Activity", "setting": "Mus musculus [15]", "result": "Active"}, {"measurement": "inhibition", "setting": "SW1990 [16]", "result": "Active"}, {"measurement": "inhibition", "setting": "SW1990 [17]", "result": "Active"}, {"measurement": "Activity", "setting": "SW1990 [18]", "result": "Active"}, {"measurement": "Activity", "setting": "SW1990 [19]", "result": "Active"}, {"measurement": "Activity", "setting": "SW1990 [20]", "result": "Active"}, {"measurement": "Activity", "setting": "SW1990 [21]", "result": "Active"}, {"measurement": "Activity", "setting": "SW1990 [22]", "result": "Active"}]}
{"smiles": "Cc1sc2c(c1C)C(c1ccc(Cl)cc1)=N[C@@H](CC(=O)OC(C)(C)C)c1nnc(C)n1-2", "values": [{"measurement": "Activity", "setting": "Mus musculus [23]", "result": "Non-Toxic"}, {"measurement": "Activity", "setting": "Mus musculus [24]", "result": "Active"}, {"measurement": "Activity", "setting": "SW1990 [25]", "result": 25.5, "unit": "%"}, {"measurement": "Activity", "setting": "SW1990 [26]", "result": 1.23, "unit": "%"}, {"measurement": "Activity", "setting": "SW1990 [27]", "result": 36.2, "unit": "%"}, {"measurement": "Activity", "setting": "SW1990 [28]", "result": 9.14, "unit": "%"}, {"measurement": "Activity", "setting": "SW1990 [29]", "result": "Active"}, {"measurement": "inhibition", "setting": "SW1990 [30]", "result": "Active"}, {"measurement": "inhibition", "setting": "SW1990 [31]", "result": "Active"}, {"measurement": "inhibition", "setting": "SW1990 [32]", "result": "Active"}, {"measurement": "inhibition", "setting": "SW1990 [33]", "result": "Active"}]}
